Laboratory results as given in the supplement of paper PMC11628255, “Interference of metal ions on the bioluminescent signal of firefly, Renilla, and NanoLuc luciferases in high-throughput screening assays” (Frontiers in Chemistry, 2024).

What was measured:
Experiment in all cases: normalised percent inhibition of luminescence (vs positive and negative controls); higher = stronger inhibition
[1] = test system: Renilla luciferase (RLuc)
Experimental: (§1)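 Concentration-response (>=11 concentrations) of metal salts on purified FLuc, NLuc or RLuc luminescence in screening (SC) or 100 mM HEPES (H) buffer; salt pre-incubated with enzyme 10 min at RT, read 10 min after substrate. Normalised percent inhibition vs plate positive (PTC-124, isradipine, BTS) and DMSO negative controls; triplicate wells.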

[2] = test system: firefly luciferase (FLuc)
Experimental: as §1

[3] = test system: NanoLuc luciferase (NLuc)
Experimental: as §1

O=[N+]([O-])[O-].O=[N+]([O-])[O-].[Pb+2] [lead(II) nitrate]
normalised percent inhibition [%]
Settings | [1] | [2] | [3]
metal salt concentration 0.0001 mM, 100 mM HEPES buffer | – | -33.9 | –
metal salt concentration 0.00025 mM, 100 mM HEPES buffer | – | -19.7 | –
metal salt concentration 0.0005 mM, 100 mM HEPES buffer | – | -15.9 | –
metal salt concentration 0.001 mM, 100 mM HEPES buffer | – | -1.03 | –
metal salt concentration 0.002 mM, screening conditions buffer | -20.9 | – | -1.02
metal salt concentration 0.005 mM, screening conditions buffer | -16.2 | – | -3.52
metal salt concentration 0.01 mM, screening conditions buffer | -2.6 | – | -2.27
metal salt concentration 0.02 mM, screening conditions buffer | -5.61 | – | -3.22
metal salt concentration 0.025 mM, 100 mM HEPES buffer | – | 88.9 | –
metal salt concentration 0.05 mM, 100 mM HEPES buffer | – | 94.75 | –
metal salt concentration 0.05 mM, screening conditions buffer | -11.8 | – | -4.15
metal salt concentration 0.1 mM, 100 mM HEPES buffer | – | 96.7 | –
metal salt concentration 0.1 mM, screening conditions buffer | -5.46 | – | -7.45
metal salt concentration 0.2 mM, screening conditions buffer | -6.41 | – | 0.428
metal salt concentration 0.5 mM, 100 mM HEPES buffer | – | 100.1 | –
metal salt concentration 0.5 mM, screening conditions buffer | -3.99 | – | 15.7
metal salt concentration 1 mM, 100 mM HEPES buffer | – | 100.4 | –
metal salt concentration 1 mM, screening conditions buffer | 2.9 | – | 11.5
metal salt concentration 2.5 mM, 100 mM HEPES buffer | – | 100.5 | –
metal salt concentration 2.5 mM, screening conditions buffer | 53.3 | – | 52
metal salt concentration 5 mM, 100 mM HEPES buffer | – | 99.63 | –
metal salt concentration 5 mM, screening conditions buffer | 94.9 | – | 129

O=[N+]([O-])[O-].O=[N+]([O-])[O-].[Cd+2] [cadmium nitrate]
normalised percent inhibition [%]
Settings | [1] | [2] | [3]
metal salt concentration 0.0001 mM, 100 mM HEPES buffer | -40.7 | -14 | -0.809
metal salt concentration 0.00025 mM, 100 mM HEPES buffer | -15.8 | -6.16 | -0.623
metal salt concentration 0.0005 mM, 100 mM HEPES buffer | -51.3 | 6.48 | -3.63
metal salt concentration 0.001 mM, 100 mM HEPES buffer | -29.6 | 33.8 | -0.485
metal salt concentration 0.002 mM, screening conditions buffer | -8.95 | – | 4.83
metal salt concentration 0.005 mM, screening conditions buffer | -5.21 | – | 6.73
metal salt concentration 0.01 mM, screening conditions buffer | -13.5 | – | 0.612
metal salt concentration 0.02 mM, screening conditions buffer | -3.71 | – | -0.781
metal salt concentration 0.025 mM, 100 mM HEPES buffer | -16 | 95.9 | -1.09
metal salt concentration 0.05 mM, 100 mM HEPES buffer | -20.9 | 99.08 | 4.79
metal salt concentration 0.05 mM, screening conditions buffer | -1.96 | – | 17.7
metal salt concentration 0.1 mM, 100 mM HEPES buffer | 18 | 99.41 | 13
metal salt concentration 0.1 mM, screening conditions buffer | -1.09 | – | 7.22
metal salt concentration 0.2 mM, screening conditions buffer | -5.06 | – | 20.6
metal salt concentration 0.5 mM, 100 mM HEPES buffer | 47.1 | 100.3 | 18.6
metal salt concentration 0.5 mM, screening conditions buffer | 39.6 | – | 30.7
metal salt concentration 1 mM, 100 mM HEPES buffer | 95.1 | 100.3 | 24.8
metal salt concentration 1 mM, screening conditions buffer | 68.6 | – | 56.2
metal salt concentration 2.5 mM, 100 mM HEPES buffer | 104 | 100.3 | 20.6
metal salt concentration 2.5 mM, screening conditions buffer | 79.4 | – | 93.1
metal salt concentration 5 mM, 100 mM HEPES buffer | 105 | 99.3 | 26.5
metal salt concentration 5 mM, screening conditions buffer | 93.4 | – | 113

O=[N+]([O-])[O-].O=[N+]([O-])[O-].[Zn+2] [zinc nitrate]
normalised percent inhibition [%]
Settings | [1] | [2] | [3]
metal salt concentration 10 nM, 100 mM HEPES buffer | – | 16.5 | –
metal salt concentration 50 nM, 100 mM HEPES buffer | – | -0.254 | –
metal salt concentration 0.0001 mM, 100 mM HEPES buffer | – | -1.38 | –
metal salt concentration 0.00025 mM, 100 mM HEPES buffer | – | 5.03 | –
metal salt concentration 0.0005 mM, 100 mM HEPES buffer | – | 35.7 | –
metal salt concentration 0.001 mM, 100 mM HEPES buffer | – | 47.4 | –
metal salt concentration 0.002 mM, screening conditions buffer | -5.83 | 21.1 | 0.728
metal salt concentration 0.005 mM, screening conditions buffer | -7.07 | 16.4 | -0.897
metal salt concentration 0.01 mM, screening conditions buffer | -4.95 | 20.5 | 10.7
metal salt concentration 0.02 mM, screening conditions buffer | -5.53 | 17.9 | 7.25
metal salt concentration 0.025 mM, 100 mM HEPES buffer | – | 86.7 | –
metal salt concentration 0.05 mM, 100 mM HEPES buffer | – | 92.6 | –
metal salt concentration 0.05 mM, screening conditions buffer | -2.83 | 11.7 | 35.8
metal salt concentration 0.1 mM, 100 mM HEPES buffer | – | 96.3 | –
metal salt concentration 0.1 mM, screening conditions buffer | -8.31 | 28.6 | 66
metal salt concentration 0.2 mM, screening conditions buffer | -2.75 | 15 | 78.9
metal salt concentration 0.5 mM, 100 mM HEPES buffer | – | 100.2 | –
metal salt concentration 0.5 mM, screening conditions buffer | -0.599 | 29.1 | 77
metal salt concentration 1 mM, 100 mM HEPES buffer | – | 100.1 | –
metal salt concentration 1 mM, screening conditions buffer | 8.71 | 46.4 | 89
metal salt concentration 2.5 mM, 100 mM HEPES buffer | – | 100.4 | –
metal salt concentration 2.5 mM, screening conditions buffer | -1 | 100.6 | 111
metal salt concentration 5 mM, 100 mM HEPES buffer | – | 100.2 | –
metal salt concentration 5 mM, screening conditions buffer | 85.5 | 100.2 | 126
